According to patent US5116863A, “Dibenz[b,e]oxepin derivative and pharmaceutical compositions thereof” (Kyowa Hakko Kogyo Co., Ltd., priority 1986, dated 1992):
Where two headings read alike, the source gives them in different places.

Tests used:
[1] = test system: homologous PCA (passive cutaneous anaphlaxis) of rats; assay: Homologous PCA (passive cutaneous anaphylaxis) test of rats for 48 hours, oral (antiallergic activity); format: in vivo, Wistar male rats; conditions: for minimal effective dose / responders at 0.001 mg/kg / responders at 0.01 mg/kg / responders at 0.1 mg/kg / responders at 1 mg/kg / responders at 10 mg/kg / responders at 100 mg/kg: Rattus norvegicus; for minimal effective dose: read-out: MED (minimum effective dosage), PCA inhibition; for responders at 0.001 mg/kg / responders at 0.01 mg/kg / responders at 0.1 mg/kg / responders at 1 mg/kg / responders at 10 mg/kg / responders at 100 mg/kg: po; for responders at 0.001 mg/kg: dosage 0.001 mg/kg, read-out: Number of positive zooids in one group of 3 zooids; for responders at 0.001 mg/kg / responders at 0.01 mg/kg / responders at 0.1 mg/kg / responders at 1 mg/kg / responders at 10 mg/kg / responders at 100 mg/kg / Number of positive zooids in one group of 3 zooids: positive = inhibition rate 50% or higher; for responders at 0.01 mg/kg: dosage 0.01 mg/kg; for responders at 0.01 mg/kg / responders at 0.1 mg/kg / responders at 1 mg/kg / responders at 10 mg/kg / responders at 100 mg/kg: read-out: Number of positive zooids in one group of 3 zooids (converted); for responders at 10 mg/kg: dosage 10 mg/kg; for responders at 100 mg/kg: dosage 100 mg/kg
Protocol: Antiallergic activity was investigated by a homologous PCA (passive cutaneous anaphlaxis) of rats for 48 hours, where Wistar male rats having body weights of 180 to 220 g were used for sampling of antiserum and Wistar male rats having body weights of 120 to 140 g were used for the PCA test.
Anti-egg white albumin (EWA) rat serum was prepared according to Stotland and Share's method [Canad. J. Physiol. Pharmacol. 52, 1114 (1974)]. That is, 1 mg of EWA was mixed with 20 mg of aluminum hydroxide gel and 0.5 ml of mixed vaccine of pertussis, diphtheria and tetanus, and the mixture was subcutaneously administered in four portions into rat's footpad. After 14 days, blood was sampled from the carotid artery, and the serum was separated from the sampled blood, and preserved under freezing at -80° C. The potency of the antiserumin in the homologous PCA for 48 hours was 1:32.
Groups each consisting of 3 rats were used, and 0.05 ml of anti-EWA rat serum diluted with a physiological saline solution to 8 times as much was incutaneously injected each at two positions of depilated back to make the animals passively sensitised. After 47 hours, the compound of the present invention, or its solution (physiological saline solution or CMC solution) was orally administered. One hour thereafter, 0.5 ml/100 g of 1% Evan's blue physiological saline solution containing 2 mg of the antigen EWA was administered into the tail vein, and 30 minutes thereafter, the animals were sacrificed by exsanguination. Then, the skins were stripped and the amount of leaked pigment at the blue-dyed parts was measured according to the Katayama et al method [Microbiol. Immunol. 22, 89 (1978)]. That is, the blue-dyed parts were cut out by scissors, and placed in test tubes containing 1 ml of 1N KOH and incubated at 37° C. for 24 hours. Then, 9 ml of a mixture of 0.6N phosphoric acid and acetone (5:13) was added thereto, and the mixture was shaked and centrifuged at 2,500 rpm for 10 minutes. Absorbancy of the supernatant at […] was measured, and the amount of leaked pigment was quantitatively determined by the calibration curve prepared in advance. An average of measurements at the two position was made a value for one zooid, and inhibition rate for the individual zooid was calculated by the following formula: [formula]

dd, male mice = format: in vivo
Protocol: Groups each consisting of 3 dd, male mice having body weights of 20±1 g were used, and the compound of the present invention was administered orally (po: 300 mg/kg) or intraperitoneally (ip: 100 mg/kg).

Rat carageenin paw edema = assay: Carageenin paw edema test (antiinflammatory activity); format: in vivo, Wistar male rats; conditions: average value in one group of 3 rats, 100 mg/kg oral administration
Protocol: Antiinflammatory activity was examined according to Rat carageenin paw edema [J. Pathol. 104, 15-29 (1971)], Groups each consisting of three Wistar male rats weighing 150 g were used. The test compound was suspended in 0.3% aqueous CMC solution and the suspension was given orally. Sixty minutes later, 0.1 ml of 0.1% carageenin was subcutaneously injected in a hind paw to form carageenin paw edema.
The volume of paw was measured before the administration and 3 hours after the administration of carageenin with plethysmometer.
The ratio of the volume 3 hours after the administration to that before the administration of carageenin was calculated and each ratio is compared with the ratio of control group (0.3% CMC was administered) to give the edema inhibiting percentage.

[2] = minimum dosage with positive case in at least one of three rats
[3] = mice, mortality 7 days after administration

| SMILES | minimal effective dose [1, 2] | responders at 0.001 mg/kg [1] | responders at 0.01 mg/kg [1] | responders at 0.1 mg/kg ([1]; dosage 0.1 mg/kg) | responders at 1 mg/kg ([1]; dosage 1 mg/kg) | responders at 10 mg/kg [1] | responders at 100 mg/kg [1] | Acute toxicity (MLD), ip (dd, male mice; [3]) | Acute toxicity (MLD), po (dd, male mice; [3]) | Number of positive zooids in one group of 3 zooids ([1]; dosage 0.1 mg/kg) | Number of positive zooids in one group of 3 zooids ([1]; dosage 1 mg/kg) | MED (minimum effective dosage), PCA inhibition [1, 2] | Number of positive zooids in one group of 3 zooids ([1]; dosage 0.1 mg/kg, listed as 31') | Number of positive zooids in one group of 3 zooids ([1]; dosage 1 mg/kg, listed as 31') | Acute toxicity (MLD), ip (dd, male mice; mouse, in vivo, 10080 min) | Acute toxicity (MLD), po (dd, male mice; mouse, in vivo, 10080 min) | Carageenin paw edema inhibiting percentage (Rat carageenin paw edema) |
| --- | --- | --- | --- | --- | --- | --- | --- | --- | --- | --- | --- | --- | --- | --- | --- | --- | --- |
| CN(C)CCC=C1c2ccccc2COc2ccc(CCC(=O)O)cc21 [Compound 28, 3-[11-(3-Dimethylaminopropylidene)-6,11-dihydrodibenz[b,e]oxepin-2-yl]-propionic acid] | 0.01 mg/kg | 0% | 66.7% | 66.7% | 100% | 100% | 100% | > 100 mg/kg | > 300 mg/kg |  |  |  |  |  |  |  |  |
| CN(C)CC/C=C1/c2ccccc2COc2ccc(CCO)cc21 [Compound 31 (cis), Cis-11-(3-dimethylaminopropylidene)-2-(2-hydroxyethyl)-6,11-dihydrodibenz[b,e]oxepin] | 0.1 mg/kg | 0% | 0% | 66.7% | 100% | 100% |  | > 100 mg/kg | 300 mg/kg |  |  |  |  |  |  |  |  |
| CN(C)CC/C=C1\c2ccccc2COc2ccc(CCO)cc21 [Compound 31 (trans), Trans-11-(3-dimethylaminopropylidene)-2-(2-hydroxyethyl)-6,11-dihydrodibenz[b,e]oxepin] |  |  |  |  |  |  |  | > 100 mg/kg | > 300 mg/kg | 3/3 | 2/3 | 0.1 mg/kg |  |  |  |  |  |
| CN(C)CC/C=C1\c2ccccc2COc2ccc(CCO)cc21 [Compound 31, 11-(3-Dimethylaminopropylidene)-2-(2-hydroxyethyl)-6,11-dihydrodibenz[b,e]oxepin] | 0.1 mg/kg |  | 0% |  |  | 100% | 100% |  |  |  |  |  | 1/3 | 3/3 | > 100 mg/kg | > 300 mg/kg |  |
| CCN(CC)CCN=C1c2ccccc2COc2ccc(C(=O)O)cc21 [Compound 35, 11-(2-Diethylaminoethyl)imino-6,11-dihydrodibenz[b,e]oxepin-2-carboxylic acid] | 10 mg/kg |  |  |  | 0% | 33.3% | 100% | > 100 mg/kg | > 300 mg/kg |  |  |  |  |  |  |  |  |
| CN(C)CCN=C1c2ccccc2COc2ccc(CC(=O)O)cc21 [Compound 37, 11-(2-Dimethylaminoethyl)imino-6,11-dihydrodibenz[b,e]oxepin-2-acetic acid] | 10 mg/kg |  |  |  | 0% | 100% | 100% | > 100 mg/kg | > 300 mg/kg |  |  |  |  |  |  |  | 51.6% |
| CCN(CC)CCN=C1c2ccccc2COc2ccc(CC(=O)O)cc21 [Compound 39, 11-(2-Diethylaminoethyl)imino-6,11-dihydrodibenz[b,e]oxepin-2-acetic acid] | 1 mg/kg |  |  | 0% | 100% | 66.7% | 100% | > 100 mg/kg | > 300 mg/kg |  |  |  |  |  |  |  | 50.2% |
